Measured values from patent publication US8361969B2, “Designer cyclic peptides—HIV gp120 antagonists and their applications” (priority 2011, dated 2013).
Several values for one entry are separate records, joined by “and”; a condition that tells them apart may be missing. Equal entries are not always repeated. Non-standard residues stand in square brackets, D forms with d. Residues, ends and D or L forms follow the SMILES beside them. dBip = N[C@H](Cc1ccc(-c2ccccc2)cc1)C(=O)O

What was measured:
cells = settings: highest tested concentration 100 μM
HIV-1 = settings: read-out: IC50, inhibition of HIV-1 entry (attachment assay); compounds pre-equilibrated with the cells rather than with the virus; value represents lower boundary of actual activity
From the text: An attachment assay, described by Lackman-Smith et al., 2008, was used.

CC[C@H](C)[C@@H]1NC(=O)[C@H](CC(=O)O)NC(=O)[C@H](Cc2ccccc2)NC(=O)[C@H](CC(=O)O)NC(=O)[C@@H](CC(=O)O)NC(=O)[C@@H](Cc2ccc(-c3ccccc3)cc2)NC(=O)[C@H]2CCCN2C(=O)CNC(=O)[C@@H](CCC(=O)O)NC(=O)[C@@H](Cc2ccc(O)cc2)NC(=O)[C@H](CCCCN)NC(=O)[C@@H](CC(C)C)NC(=O)[C@@H](CC(=O)O)NC(=O)[C@H]([C@@H](C)CC)NC1=O [2-s4-98rp-39m-60-1_MC] (cyclo(DFDII[dD][dL]K[dY][dE]G[dP][dBip][dD]))
cytotoxicity (none observed up to the highest tested concentration) (cells): > 100 µM
IC50 (HIV-1): ≤ 1640 nM and 1640 nM
